Laboratory results published in USRE34480E, “Naphthalocyanine compounds” (Yamamoto Kagaku Gosei Co., Ltd., priority 1983, dated 1993).
Read-outs that look alike come from different tables or passages of the source.

Tests used:
[1] = Near infrared absorption spectrum in toluene (largest absorption peak, absorptivity coefficient); format: physicochemical
Source text: It is to be noted that the naphthalocyanine compounds according to the present invention are not restricted to the compounds shown in Table 2.
Near infrared absorption spectrum for toluene solution: […]

[2] = Solubility in toluene; format: physicochemical; details: for Solubility in Toluene: 1 g in 5 ml toluene, ultrasonic shaking 50° C. 10 min, then room temperature 30 min, filtered; for residue (solubility measurement in toluene): residue behind the printed solubility
Method: In a 20 ml test tube were placed 1 g of a naphthalocyanine compound and 5 ml of toluene. After the tube was tightly stoppered, the content was subjected to ultrasonic shaking at 50° C. for 10 min. Then, the tube was allowed to stand at room temperature for 30 min. and the content was filtered. The filtrate was concentrated to dryness. The solubility of the naphthalocyanine in toluene was calculated using the following equation. [formula] R1, R2, and R3 and R4 of naphthalocyanine compounds of the present invention can bond to 6 to 7 positions of all naphthalene nuclei of naphthalocyanine. Each of these groups can be a mixed group.

Substance | Absorptivity coefficient (log ε) [1] | Wavelength at largest absorption peak [1] [nm] | Solubility in Toluene [2] [%] | Absorptivity coefficient (log ε) ([1]; listed as tert-amyl Cu) | residue (solubility measurement in toluene) [2] [g] | Solubility in organic solvents (in words) ([2]; organic solvents, compared with tert-butyl analogue or in general)
copper tetra-tert-amylnaphthalocyanine [Example 2] | – | 771 | 7 | 5.24 | – | –
tetra-tert, sec-mixed amylvanadylnaphthalocyanine [Example 3] | 5.32 | 809 | 7 | – | 0.6 | –
tetra-tert-amylvanadylnaphthalocyanine [Example 1] | 5.37 | 808 | 6 | – | 0.6 | –

Continued, in another order:

Absorptivity coefficient (log ε) [1] | Wavelength at largest absorption peak [1] [nm] | Solubility in Toluene [2] [%] | Absorptivity coefficient (log ε) ([1]; listed as tert-amyl Cu) | residue (solubility measurement in toluene) [2] [g] | Substance | Solubility in organic solvents (in words) ([2]; organic solvents, compared with tert-butyl analogue or in general)
5.09 | 805 | 7 | – | – | Indium tetra-tert, sec-mixed amylnaphthalocyanine [Example 4] | –
– | – | 2 | – | – | tetra-6-tert-butylvanadylnaphthalocyanine [reference compound] | much lower solubility in organic solvents
5.27 | 809 | 11 | – | – | tetra-tert-heptylvanadylnaphthalocyanine [Example 5] | –
